From paper PMC9380551 (Antimicrobial Agents and Chemotherapy, 2022)

System: SARS-CoV-2 Wuhan reference strain
Format: cell-based

Row | Compound | comparative efficiency in inhibiting SARS-CoV-2 replication
1 | CCC(CC)COC(=O)[C@H](C)N[P@](=O)(OC[C@H]1O[C@@](C#N)(c2ccc3c(N)ncnn23)[C@H](O)[C@@H]1O)Oc1ccccc1 [remdesivir] | the most efficient molecule
2 | CC(C)c1nc(CN(C)C(=O)N[C@H](C(=O)N[C@@H](Cc2ccccc2)C[C@H](O)[C@H](Cc2ccccc2)NC(=O)OCc2cncs2)C(C)C)cs1 [ritonavir] | AB-00011778 was more efficient than the ritonavir molecule
